The text below walks through data of patent US7893055B2, “HIV integrase inhibitors” (priority 2006, dated 2011).

One assay has as its target T1, HIV-integrase (Human immunodeficiency virus type 1 group M subtype B, UniProt P12497).
T1 construct: Recombinant integrase (0.26 ng) was incubated with the beads
Nature of the assay: HIV-Integrase Inhibition Activity (SPA strand transfer assay). The assay is classed as biochemical. As to conditions: recombinant integrase, SPA beads, P33 labeled target DNA; read-out: Activity (IC50 class, HIV-integrase inhibition). How it is done:
HIV-Integrase InhibitionActivity. To evaluate in-vitro activity against HIV-integrase, 5 pmole of biotin labeled substrate DNA was bound to 100 μg of Streptavidin coated PVT SPA beads (Amersham Pharmacia Biotech). Recombinant integrase (0.26 ng) was incubated with the beads for 90 min at 37° C. Unbound enzyme was removed by washing the complex followed by addition of inhibitors and 0.1 fmol of P33 labeled target DNA. The reaction was stopped by adding EDTA to a final concentration of 10 mM. Samples were counted in TopCountNXT (Packard) and the CPM was used as a measure of integration. The reaction condition was as described in A. Engelman and R. Craigie, J. Virol. 69, 5908-5911 (1995). The sequences of substrate and target DNA were described in Nucleic Acid Research 22, 1121-1122 (1994). Activity equal to A refers to a compound having IC50=0.002 to 0.10 μM while B and C denote compounds having IC50=0.1 to 1.0 μM and IC50≧1.0 μM respectively.

Assay [1] relates to recombinant NL-Rluc virus. The assay is described as follows: Inhibition of HIV replication (NL-Rluc virus, luciferase). Format: cell-based. As to conditions: NL-Rluc pseudotype virus; serum condition of tabulated values not stated (10% FBS, 15 mg/ml HSA/10% FBS or 40% human serum/5% FBS); read-out: Activity (EC50 class, inhibition of HIV replication).

Broadly, the IC50 is the midpoint of a concentration-inhibition curve. As usually defined, the EC50 is the concentration giving half of the maximal effect.

For “Pyrimido[2,1-c][1,4]oxazine-2- carboxamide, N-[(4-chloro-1- ethyl-1H-pyrazol-3-yl)methyl]- 4,6,7,9-tetrahydro-3-hydroxy-9,9- dimethyl-4-oxo- [Example 70]”, the IC50 at HIV-integrase was in the range of 2 to 100 nM. Moreover, in assay [1], the EC50 was more than 1000 nM.
Take “Pyrimido[2,1-c][1,4]oxazine-2- carboxamide, 4,6,7,9-tetrahydro-3- hydroxy-9,9-dimethyl-N-[(1- methyl-1H-pyrazol-3-yl)methyl]-4- oxo- [Example 72]”: the IC50 at HIV-integrase was in the range of 2 to 100 nM. The concentration for a half-maximal effect (EC50) in assay [1] lay in the range of 100 to 1000 nM.
For “Pyrimido[2,1-c][1,4]oxazine-2- carboxamide, N-[(2-bromo-3- thienyl)methy]-4,6,7,9-tetrahydro- 3-hydroxy-9,9-dimethyl-4-oxo- [Example 41]”, in that order: 2 to 100 nM and 100 to 1000 nM.
Consider “Pyrimido[2,1-c][1,4]oxazine-2- carboxamide, N-(1,2-benzisoxazol- 3-ylmethyl)-4,6,7,9-tetrahydro-3- hydroxy-9,9-dimethyl-4-oxo- [Example 59]”, for which the IC50 at HIV-integrase was 2 to 100 nM. Besides, the EC50 in assay [1] is 100 to 1000 nM.
For “Pyrimido[2,1-c][1,4]oxazine-2- carboxamide, N-[(2,5-dimethyl-3- furanyl)methyl]-4,6,7,9- tetrahydro-3-hydroxy-9,9- dimethyl-4-oxo- [Example 44]”, in that order: 2 to 100 nM and 3 to 100 nM.
For “Pyrimido[2,1-c][1,4]oxazine-2- carboxamide, 4,6,7,9-tetrahydro-3- hydroxy-9,9-dimethyl-N-[[5- methyl-2-(trifluoromethyl)-3- furanyl]methy]-4-oxo- [Example 42]”, in that order: 2 to 100 nM and 100 to 1000 nM.
Take “Pyrimido[2,1-c][1,4]oxazine-2- carboxamide, N-(2- benzofuranylmethyl)-4,6,7,9- tetrahydro-3-hydroxy-9,9- dimethyl-4-oxo- [Example 56]”: the IC50 at HIV-integrase fell in the range of 2 to 100 nM. Moreover, the EC50 in assay [1] fell in the range of 3 to 100 nM.
For “Pyrimido[2,1-c][1,4]oxazine-2- carboxamide, N-[(1-ethyl-1H- pyrazol-3-yl)methyl]-4,6,7,9- tetrahydro-3-hydroxy-9,9- dimethyl-4-oxo- [Example 67]”, in that order: 2 to 100 nM and 100 to 1000 nM.
As for `CNC(=O)c1ccoc1CNC(=O)c1nc2n(c(=O)c1O)CCOC2(C)C` [Example 12, Pyrimido[2,1-c][1,4]oxazine-2-carboxamide, 4,6,7,9-tetrahydro-3-hydroxy-9,9-dimethyl-N-[[3-[(methylamino)carbonyl]-2-furanyl]methyl]-4-oxo-], the IC50 at HIV-integrase is 2 to 100 nM.
Same read-out and setting: the result for `CCn1cc(CNC(=O)c2nc3n(c(=O)c2O)CCOC3(C)C)cn1` [Example 65, Pyrimido[2,1-c][1,4]oxazine-2-carboxamide, N-[(1-ethyl-1H-pyrazol-4-yl)methyl]-4,6,7,9-tetrahydro-3-hydroxy-9,9-dimethyl-4-oxo-] reads 100 to 1000 nM; that for `Cc1cccc(-n2cc(CNC(=O)c3nc4n(c(=O)c3O)CCOC4(C)C)cn2)c1` [Example 91, 3-Hydroxy-9,9-dimethyl-N-((1-(3-methylphenyl)-1H-pyrazol-4-yl)methyl)-4-oxo-4,6,7,9-tetrahydropyrimido[2,1-c][1,4]oxazine-2-carboxamide], not below 1000 nM.
With `Cc1cc(CNC(=O)c2nc3n(c(=O)c2O)CCOC3(C)C)nn1C` [Example 2, Pyrimido[2,1-c][1,4]oxazine-2-carboxamide, N-[(1,5-dimethyl-1H-pyrazol-3-yl)methyl]-4,6,7,9-tetrahydro-3-hydroxy-9,9-dimethyl-4-oxo-], the IC50 at HIV-integrase is 100 to 1000 nM.
Same read-out and setting: the result for “Pyrimido[2,1-c][1,4]oxazine-2- carboxamide, 4,6,7,9-tetrahydro-3- hydroxy-9,9-dimethyl-4-oxo-N- (1H-pyrazol-3-ylmethyl)- [Example 69]” reads 100 to 1000 nM.
Same read-out and setting: for `Cc1nn(C)c(C)c1CNC(=O)c1nc2n(c(=O)c1O)CCOC2(C)C` [Example 39, Pyrimido[2,1-c][1,4]oxazine-2-carboxamide, 4,6,7,9-tetrahydro-3-hydroxy-9,9-dimethyl-4-oxo-N-[(1,3,5-trimethyl-1H-pyrazol-4-yl)methyl]-] the value was 100 to 1000 nM; for `CC1(C)OCCn2c1nc(C(=O)NCc1ccc(Cc3ccccc3)o1)c(O)c2=O` [Example 27, Pyrimido[2,1-c][1,4]oxazine-2-carboxamide, 4,6,7,9-tetrahydro-3-hydroxy-9,9-dimethyl-4-oxo-N-[[5-(phenylmethyl)-2-furanyl]methyl]], 2 to 100 nM.
Still for that read-out and setting: for “Pyrimido[2,1-c][1,4]oxazine-2- carboxamide, 4,6,7,9-tetrahydro-3- hydroxy-9,9-dimethyl-N-[(5- methyl-3-phenyl-4- isoxazolyl)methy]-4-oxo- [Example 43]” the value was not below 1000 nM.
Regarding `CC1(C)OCCn2c1nc(C(=O)NCc1csc(-c3ccc(Cl)cc3)n1)c(O)c2=O` [Example 4, Pyrimido[2,1-c][1,4]oxazine-2-carboxamide, N-[[2-(4-chlorophenyl)-4-thiazolyl]methyl]-4,6,7,9-tetrahydro-3-hydroxy-9,9-dimethyl-4-oxo-], the IC50 on HIV-integrase was 100 to 1000 nM.
Still for that read-out and setting: for `CC1(C)OCCn2c1nc(C(=O)NCc1ccc(C(=O)N3CCOCC3)o1)c(O)c2=O` [Example 17, Pyrimido[2,1-c][1,4]oxazine-2-carboxamide, 4,6,7,9-tetrahydro-3-hydroxy-9,9-dimethyl-N-[[5-(4-morpholinylcarbonyl)-2-furanyl]methyl]-4-oxo-] the value was not below 1000 nM.
On the same count and under the same terms, the result for `Cc1cc(CNC(=O)c2nc3n(c(=O)c2O)CCOC3(C)C)sc1C` [Example 31, N-((4,5-dimethyl-2-thienyl)methyl)-3-hydroxy-9,9-dimethyl-4-oxo-4,6,7,9-tetrahydropyrimido[2,1-c][1,4]oxazine-2-carboxamide] reads 2 to 100 nM; that for `CC1(C)OCCn2c1nc(C(=O)NCc1cc(-c3ccccc3)no1)c(O)c2=O` [Example 89, 3-Hydroxy-9,9-dimethyl-4-oxo-N-((3-phenyl-5-isoxazolyl)methyl)-4,6,7,9-tetrahydropyrimido[2,1-c][1,4]oxazine-2-carboxamide], not below 1000 nM.
On the same count and under the same terms, the result for “Pyrimido[2,1-c][1,4]oxazine-2- carboxamide, N-[(1,3-diphenyl- 1H-pyrazol-4-yl)methyl]-4,6,7,9- tetrahydro-3-hydroxy-9,9- dimethyl-4-oxo- [Example 66]” reads 100 to 1000 nM; that for `COC(=O)n1nc(CNC(=O)c2nc3n(c(=O)c2O)CCOC3(C)C)c2ccccc21` [Example 79, Methyl 3-((((3-hydroxy-9,9-dimethyl-4-oxo-4,6,7,9-tetrahydropyrimido[2,1-c][1,4]oxazin-2-yl)carbonyl)amino)methyl)-1H-indazole-1-carboxylate], 2 to 100 nM; that for `Cc1cc(Br)c(CNC(=O)c2nc3n(c(=O)c2O)CCOC3(C)C)s1` [Example 33, Pyrimido[2,1-c][1,4]oxazine-2-carboxamide, N-[(3-bromo-5-methyl-2-thienyl)methyl]-4,6,7,9-tetrahydro-3-hydroxy-9,9-dimethyl-4-oxo-], 2 to 100 nM.
Take `Cc1csc(CNC(=O)c2nc3n(c(=O)c2O)CCOC3(C)C)c1` [Example 30, Pyrimido[2,1-c][1,4]oxazine-2-carboxamide, 4,6,7,9-tetrahydro-3-hydroxy-9,9-dimethyl-N-[(4-methyl-2-thienyl)methyl]-4-oxo-]: the IC50 on HIV-integrase was 2 to 100 nM.
Same read-out and setting: the result for `Cc1ccc(CNC(=O)c2nc3n(c(=O)c2O)CCOC3(C)C)o1` [Example 37, Pyrimido[2,1-c][1,4]oxazine-2-carboxamide, 4,6,7,9-tetrahydro-3-hydroxy-9,9-dimethyl-N-[(5-methyl-2-furanyl)methyl]-4-oxo-] reads 2 to 100 nM; that for `CC1(C)OCCn2c1nc(C(=O)NCc1nn(S(C)(=O)=O)c3ccccc13)c(O)c2=O` [Example 78, 3-Hydroxy-9,9-dimethyl-N-((1-(methylsulfonyl)-1H-indazol-3-yl)methyl)-4-oxo-4,6,7,9-tetrahydropyrimido[2,1-c][1,4]oxazine-2-carboxamide], 2 to 100 nM.
Still for that read-out and setting: for `CC1(C)OCCn2c1nc(C(=O)NCC1Cc3ccccc3O1)c(O)c2=O` (centres unmarked) [Example 76, N-(2,3-dihydro-1-benzofuran-2-ylmethyl)-3-hydroxy-9,9-dimethyl-4-oxo-4,6,7,9-tetrahydropyrimido[2,1-c][1,4]oxazine-2-carboxamide] the value was 2 to 100 nM; for “Pyrimido[2,1-c][1,4]oxazine-2- carboxamide, 4,6,7,9-tetrahydro-3- hydroxy-9,9-dimethyl-N-[(4- methyl-2-phenyl-5- thiazolyl)methyl]-4-oxo- [Example 74]”, not below 1000 nM.
The same measure, in the same setting: for `CC1(C)OCCn2c1nc(C(=O)NCc1ccco1)c(O)c2=O` [Example 38, Pyrimido[2,1-c][1,4]oxazine-2-carboxamide, N-(2-furanylmethyl)-4,6,7,9-tetrahydro-3-hydroxy-9,9-dimethyl-4-oxo-] the value was 2 to 100 nM; for “Pyrimido[2,1-c][1,4]oxazine-2- carboxamide, N-[(1-ethyl-3- methyl-1H-pyrazol-5-yl)methyl]- 4,6,7,9-tetrahydro-3-hydroxy-9,9- dimethyl-4-oxo- [Example 46]”, 100 to 1000 nM.
